Laboratory results published in patent US20070249590A1, “Substituted indolo[2,3-a]pyrrolo[3,4-c]carbazole compounds useful in treating kinase disorders” (priority 2005, published 2007).

Biological target: T1, JAK3 (JH1 and JH2 domain) (Homo sapiens, UniProt P52333)
T1 sequence (P52333 521-1111 limits assumed): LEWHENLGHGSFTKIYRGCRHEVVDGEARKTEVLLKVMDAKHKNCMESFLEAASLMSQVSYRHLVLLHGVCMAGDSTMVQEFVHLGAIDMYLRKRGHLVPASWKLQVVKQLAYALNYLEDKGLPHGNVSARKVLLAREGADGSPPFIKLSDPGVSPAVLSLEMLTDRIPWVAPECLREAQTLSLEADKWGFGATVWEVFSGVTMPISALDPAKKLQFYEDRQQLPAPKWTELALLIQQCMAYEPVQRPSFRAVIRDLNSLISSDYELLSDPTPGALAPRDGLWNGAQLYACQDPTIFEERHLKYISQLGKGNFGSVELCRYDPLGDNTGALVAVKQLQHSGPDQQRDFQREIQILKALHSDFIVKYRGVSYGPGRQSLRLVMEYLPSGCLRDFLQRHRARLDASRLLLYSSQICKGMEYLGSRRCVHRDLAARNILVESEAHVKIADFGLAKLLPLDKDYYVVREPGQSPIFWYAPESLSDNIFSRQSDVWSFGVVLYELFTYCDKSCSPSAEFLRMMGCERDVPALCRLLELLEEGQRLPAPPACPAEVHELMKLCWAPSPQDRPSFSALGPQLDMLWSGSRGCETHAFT
Test: JAK3 Kinase Assay (ELISA of peptide substrate phosphorylation)
Type: biochemical
Settings: purified JAK3 enzyme, 10 μM ATP, biotinylated peptide substrate, 1 hour at room temperature
Description: JAK3 enzyme activity was assayed relative to enzyme phosphorylation using the method described herein.
Sf21 cells derived from the ovarian tissue of the fall armyworm Spodotera frugiperda were obtained from Pharmingen (San Diego, Calif.) and maintained at a temperature of about 26-28° C. in 1 l Bellco spinner flasks at 60-90 rpm. Cell viability was maintained at 95-100%, as determined by a tryptan blue dye exclusion test.
Sf21 cells were infected with a baculovirus expression vector for JAK3 (JH1 and JH2 domain). After 48 hours of infection, cells were harvested and lysed in Tris-saline (pH 7.6) containing 2% NP-40 and a combination of protease inhibitors (Aprotinin, Pepstatin A, Pefabloc, E-64, Leupeptin, and Benzamidine) on ice for 45 minutes.
The JAK3 enzyme was purified from the lysate using glutathione sepharose beads and the enzyme activity was assessed in Costar flat bottom EIA/RIA 96 well plates. The plates were coated with Neutravidin (110 μL) (Pierce Neutravidin Biotin-binding Protein 31000; 1 mg/mL 1:100) diluted in PBS for 1 hour at room temperature. The plates were washed with PBS-0.1% Tween (3 times) to remove unbound Neutravidin, then 1% BSA (150 NIL) in PBS was added to each well to block non-specific binding. The plates was incubated for 1 hour at room temperature and stored at −80° C. until use.
JAK3 enzyme solution (48 μL) in 1.25×TK buffer (62.5 mM HEPES pH 7.5, 12.5 mM MgCl2) containing DTT (42 mM) (Sigma, St. Louis, Mo.) was added to each well of a polypropylene 96 well plate.
A test compound (5 μL) diluted in DMSO (48 μL) and biotinylated peptide enzyme substrate (5 μg diluted in TK buffer containing 10 μM ATP) were added to each well using the double dispense feature of a multichannel electronic biohit. Control wells received DMSO vehicle (5 μL). The contents of the wells were mixed for approximately 8 seconds using a multitube vortexer and the reaction mixture was incubated for 1 hour at room temperature.
After incubation, an aliquot of reaction mixture (90 μL) was transferred into a washed Neutravidin coated plate. The plate was incubated for 15 minutes at room temperature and washed 3 times with PBS-T. PY99 anti-phosphotyrosine antibody (100 μL/well) (Santa Cruz #sc-7020HRP diluted 1:6000 in 1× antibody buffer) was added into each well and the plate was incubated for 40 minutes at room temperature. The antibody buffer contained 10% BSA, 100 mM Tris (pH 7.5), 1M NaCl and 1% Tween 20. The plate washed 3 times with PBS-T, then TMB (100 pLXSigma, St. Louis, Mo.) was added to the each well. The plate was incubated for another 40 mins at room temperature in the dark. The reaction was stopped by the addition of 1M H2SO4 (50 μL/well) and the optical density was read at 450/650 nm.
Test compounds were assayed in triplicate at 16 concentrations at half-log dilutions starting at 200 μM. A maximum and minimum signal for the assay was determined on each plate. The percent inhibition of a test compound was calculated according to the formula [formula]
For a series of test concentrations, the IC50 was derived by graphing percent inhibition against the log of the concentrations tested for a given compound. For those compounds without an IC50, the percent inhibition results are shown at a test concentration of 1 μM.

Row | SMILES | IC50 [nM]
1 | CN(C)C1CCN(C(=O)OC2Cn3c4ccccc4c4c5c(c6c7ccccc7n(c6c43)CC2O)C(=O)NC5=O)C1 (stereo not shown) [Cpd 100, 12,13-{2-[(3-dimethyl-pyrrolidin-1-yl)carbonyloxy]-3-hydroxy-butan-1,4-yl}-12,13-dihydro-5,7-dioxo-6H-indolo[2,3-a]pyrrolo[3,4-c]carbazole] | 173
2 | O=C1NC(=O)c2c1c1c3ccccc3n3c1c1c2c2ccccc2n1CC(O)(C(=O)N1CCN(c2ccccn2)CC1)C(O)C3 (stereo not shown) [Cpd 131, 12,13-{2-[(4-pyridin-2-yl-piperazin-1-yl)carbonyl]-2,3-dihydroxy-butan-1,4-yl}-12,13-dihydro-5,7-dioxo-6H-indolo[2,3-a]pyrrolo[3,4-c]carbazole] | 78
3 | CN(C)CCNC(=O)OC1Cn2c3ccccc3c3c4c(c5c6ccccc6n(c5c32)CC1O)C(=O)NC4=O (stereo not shown) [Cpd 77, 12,13-[2-[(2-dimethylamino-ethyl)carbamoyloxy]-3-hydroxy-butan-1,4-yl]-12,13-dihydro-5,7-dioxo-6H-indolo[2,3-a]pyrrolo[3,4-c]carbazole] | 86
4 | CN(C)CCN(C)C(=O)OC1CCn2c3ccccc3c3c4c(c5c6ccccc6n(c5c32)C1)C(=O)NC4=O (stereo not shown) [Cpd 67, 12,13-(2-{[N-methyl-N-(2-dimethylamino-ethyl)]carbamoyloxy}-butan-1,4-yl)-12,13-dihydro-5,7-dioxo-6H-indolo[2,3-a]pyrrolo[3,4-c]carbazole] | 247
5 | O=C1NCc2c1c1c3ccccc3n3c1c1c2c2ccccc2n1CC(O)(COC(=O)N1CCc2ccccc2C1)C3 (stereo not shown) [Cpd 147, 12,13-{2-hydroxy-2-[(1,2,3,4-tetrahydro-isoquinolin-2-yl)carbonyloxymethyl]-propan-1,3-yl}-6,7,12,13-tetrahydro-5-oxo-5H-indolo[2,3-a]pyrrolo[3,4-c]carbazole] | 28
6 | O=C(NCCc1ccccn1)OCC1(O)Cn2c3ccccc3c3c4c(c5c6ccccc6n(c5c32)C1)C(=O)NC4 (stereo not shown) [Cpd 139] | 160
7 | O=C1NC(=O)c2c1c1c3ccccc3n3c1c1c2c2ccccc2n1CC(OC(=O)N1CCN(c2ccccn2)CC1)C(O)C3 (stereo not shown) [Cpd 112, 12,13-{2-[(4-pyridin-2-yl-piperazin-1-yl)carbonyloxy]-3-hydroxy-butan-1,4-yl}-12,13-dihydro-5,7-dioxo-6H-indolo[2,3-a]pyrrolo[3,4-c]carbazole] | 1080
8 | O=C1NC(=O)c2c1c1c3ccccc3n3c1c1c2c2ccccc2n1CC(OC(=O)N1CCN(C2CCCCC2)CC1)C(O)C3 (stereo not shown) [Cpd 101, 12,13-{2-[(4-cyclohexyl-piperazin-1-yl)carbonyloxy]-3-hydroxy-butan-1,4-yl}-12,13-dihydro-5,7-dioxo-6H-indolo[2,3-a]pyrrolo[3,4-c]carbazole] | 1100
9 | O=C1NC(=O)c2c1c1c3cc(-c4ccncc4)ccc3n3c1c1c2c2ccccc2n1CC(O)CC3 (stereo not shown) [Cpd 33, 3-pyridin-4-yl-12,13-(2-hydroxy-butan-1,4-yl)-12,13-dihydro-5,7-dioxo-6H-indolo[2,3-a]pyrrolo[3,4-c]carbazole] | 40
10 | COCCNC(=O)OC1CCn2c3ccccc3c3c4c(c5c6ccccc6n(c5c32)C1)C(=O)NC4=O (stereo not shown) [Cpd 41, 12,13-{2-[(2-methoxy-ethyl)carbamoyloxy]-butan-1,4-yl}-12,13-dihydro-5,7-dioxo-6H-indolo[2,3-a]pyrrolo[3,4-c]carbazole] | 8
11 | Cc1ccc(CNC(=O)OCC2(O)Cn3c4ccccc4c4c5c(c6c7ccccc7n(c6c43)C2)C(=O)NC5)o1 (stereo not shown) [Cpd 141, 12,13-(2-hydroxy-2-{[(5-methyl-furan-2-yl)methyl]carbamoyloxymethyl}-propan-1,3-yl)-6,7,12,13h-tetrahydro-5-oxo-5H-indolo[2,3-a]pyrrolo[3,4-c]carbazole] | 117
12 | O=C1NC(=O)c2c1c1c3ccccc3n3c1c1c2c2ccccc2n1CC(OC(=O)N1CCN(Cc2ccccc2)CC1)CC3 (stereo not shown) [Cpd 44, 12,13-{2-[(4-benzyl-piperazin-1-yl)carbonyloxy]-butan-1,4-yl}-12,13-dihydro-5,7-dioxo-6H-indolo[2,3-a]pyrrolo[3,4-c]carbazole] | 122
13 | CN1CCN(CCCNC(=O)OC2CCn3c4ccccc4c4c5c(c6c7ccccc7n(c6c43)C2)C(=O)NC5=O)CC1 (stereo not shown) [Cpd 43, 12,13-(2-{[3-(4-methyl-piperazin-1-yl)prop-1-yl]carbamoyloxy}-butan-1,4-yl)-12,13-dihydro-5,7-dioxo-6H-indolo[2,3-a]pyrrolo[3,4-c]carbazole] | 112
14 | O=C(NCc1ccc2c(c1)OCO2)OC1CCn2c3ccccc3c3c4c(c5c6ccccc6n(c5c32)C1)C(=O)NC4=O (stereo not shown) [Cpd 46, 12,13-{2-[(benzo[1,3]dioxol-5-yl-methyl)carbamoyloxy]-butan-1,4-yl}-12,13-dihydro-5,7-dioxo-6H-indolo[2,3-a]pyrrolo[3,4-c]carbazole] | 66

Further lines, results first:

Row | IC50 [nM] | SMILES
15 | 3000 | O=C(NC1CCN(Cc2ccccc2)CC1)OC1CCn2c3ccccc3c3c4c(c5c6ccccc6n(c5c32)CC1)C(=O)NC4 (stereo not shown) [Cpd 187, 12,13-{3-[(1-benzyl-piperidin-4-yl)carbamoyloxy]-pentan-1,5-yl}-6,7,12,13-tetrahydro-5-oxo-5H-indolo[2,3-a]pyrrolo[3,4-c]carbazole]
16 | 13 | O=Cc1ccc2c(c1)c1c3c(c4c5cc(Br)ccc5n5c4c1n2CC(CO)C5)C(=O)NC3 (stereo not shown) [Cpd 207, 3-bromo-9-formyl-12,13-(2-hydroxymethyl-propan-1,3-yl)-6,7,12,13-tetrahydro-5-oxo-5H-indolo[2,3-a]pyrrolo[3,4-c]carbazole]
17 | 22 | O=C1NCc2c1c1c3ccccc3n3c1c1c2c2ccccc2n1CC(CO)C3 (stereo not shown) [Cpd 23, 12,13-(2-hydroxymethyl-propan-1,3-yl)-6,7,12,13-tetrahydro-5-oxo-5H-indolo[2,3-a]pyrrolo[3,4-c]carbazole]
18 | 1270 | COc1ccc(CCNC(=O)OC2CCn3c4ccccc4c4c5c(c6c7ccccc7n(c6c43)CC2)C(=O)NC5)cc1OC (stereo not shown) [Cpd 183, 12,13-(3-{[2-(3,4-dimethoxy-phenyl)ethyl]carbamoyloxy}-pentan-1,5-yl)-6,7,12,13-tetrahydro-5-oxo-5H-indolo[2,3-a]pyrrolo[3,4-c]carbazole]
19 | 7360 | O=C1NCc2c1c1c3ccccc3n3c1c1c2c2ccccc2n1CCC(OC(=O)N1CCN(c2ccc(O)cc2)CC1)CC3 (stereo not shown) [Cpd 181, 12,13-(3-{[4-(4-hydroxy-phenyl)piperazin-1-yl]carbonyloxy}-pentan-1,5-yl)-6,7,12,13-tetrahydro-5-oxo-5H-indolo[2,3-a]pyrrolo[3,4-c]carbazole]
20 | 171 | O=C1NCc2c1c1c3cc(Br)ccc3n3c1c1c2c2ccccc2n1C/C=C\C3 [Cpd 6, 3-bromo-12,13-(but-2-en-1,4-yl)-6,7,12,13-tetrahydro-5-oxo-5H-indolo[2,3-a]pyrrolol [3,4-c]carbazole]
21 | > 50000 | O=C1NCc2c1c1c3cc(CN4CCOCC4)ccc3n3c1c1c2c2cc(CN4CCOCC4)ccc2n1CC(CO)C3 (stereo not shown) [Cpd 214, 3,9-bis-(morpholin-4-ylmethyl)-12,13-(2-hydroxymethyl-propan-1,3-yl)-6,7,12,13-tetrahydro-5-oxo-5H-indolo[2,3-a]pyrrolo[3,4-c]carbazole]
22 | 144 | CC(C)NC(=O)OCC1Cn2c3ccccc3c3c4c(c5c6ccccc6n(c5c32)C1)C(=O)NC4 (stereo not shown) [Cpd 155]
